Each structure is given as a SMILES string. Activity calls are given as the source filed them. The rule behind the calls is not given here.

The experiment deals with PC-12. The experiment is described as follows: Neuroprotective activity in rat PC12 cells assessed as reduction in H2O2-induced cytotoxicity at 1 to 10 uM pre-incubated for 24 hrs followed by H2O2 exposure for 24 hrs by MTT assay. The format is functional, cell-based. (Formazan colour is commonly taken as a measure of viable cells.)
Regarding `CCOC(=O)[C@](O)(Cc1ccc(O)cc1)[C@@H](O)C(=O)O`, the result was Active.
For `CCOC(=O)[C@@H](OC(=O)/C=C/c1ccc(O[C@@H]2O[C@H](CO)[C@@H](O)[C@@H](O)[C@H]2O)c(OC)c1)[C@@](O)(Cc1ccc(O)cc1)C(=O)O` the value was “Active”; for `CCOC(=O)[C@H](O)[C@@](O)(Cc1ccc(O)cc1)C(=O)O`, “Active”.

The values above are taken from ChEMBL document CHEMBL4052713, “Bioactivity-guided isolation of chemical constituents against H2O2-induced neurotoxicity on PC12 from Cimicifuga dahurica (Turcz.) Maxim” (Bioorg Med Chem Lett, 2017).
